Data set [1] is described as follows: DPPH free radical scavenging assay. The settings on record: for DPPH Assay (λ = 517 nm) Absorbance Decrease in 10^−4 mol/L Concentration [%] Mean ± SEM: 30 min incubation, vs solvent + reaction mixture blank. As for the experimental part: (§1) In order to determine the possible antioxidant properties, selected compounds were tested in 2,2-diphenyl-1-picrylhydrazyl (DPPH) and ferric reducing antioxidant power (FRAP) assay with ascorbic acid as a reference compound (Table 2). For details, please refer to the Materials and Methods Section. Graphical representation of tests results can be found in Supplementary Material.
(§2) Antioxidant properties of compounds were tested in vitro in two different assays: the 2,2-diphenyl-1-picrylhydrazyl (DPPH) assay and the FeCl3 reduction activity assay (FRAP, ferric reducing antioxidant power). The tested compounds and ascorbic acid were dissolved in DMSO at the 10^−2 mol/L concentration, and in ethanol at the concentration of 10^−4 mol/L respectively. Moreover, 30% and 50% ascorbic acid activity cut-off for DPPH and FRAP assays respectively were set ad hoc.
DPPH is a molecule containing a stable free radical. The reduction of DPPH (purple) in ethanol solution takes place in the presence of a hydrogen-donating antioxidant due to the formation of the non-radical form of DPPH-H (yellow). This transformation results in color change from purple to yellow, which can be measured spectrophotometrically. Thus, the decrease in absorbance is proportional to the decrease in concentration of DPPH (free radical) and discoloration of reaction mixture indicates the scavenging of free radicals by a tested antioxidant.
In order to determine antioxidant capacity, 20 μL of the compound solutions (dissolved in 96% ethanol) was mixed with 180 μL of 0.3 mM ethanolic DPPH solution. The change in the absorbance was detected at 517 nm after 30 min of incubation. Results were expressed as percentage decrease in absorbance of the tested sample, compared to the sample containing the solvent + reaction mixture (blank with maximum concentration of the DPPH radical). L-ascorbic acid was used as a reference compound. Calculations were made using MS Excel, from the proportion where the change of absorbance in the vitamin C (vit. C) group was treated as 100%, according to Equation (1):(1) % activity of Vit.C=ΔAb×100/ΔAVit. C
Calculation of % Vit. C activity: ΔAb -the change in the absorbance of the test sample and ΔAVit. C is change in the absorbance of reference sample, or with vit. C.
For orientation: The DPPH test is a chemical assay of radical scavenging.

Data set [2] can be described thus: FRAP (ferric reducing antioxidant power) assay. As to conditions: 10 min incubation, vs sample containing solvent. As for the experimental part: as §1, §2
A modified method of Benzie and Strain [38] was adopted for the FRAP assay. The stock solutions included 300 mM acetate buffer (3.1 g of C2H3NaO2 × 3H2O and 16 mL of C2H4O2), pH 3.6, 10 mM TPTZ (2,4,6-tripyridyl-s-triazine) solution in 40 mM HCl, and 20 mM FeCl3 × 6H2O solution. The working solution was prepared by mixing 10 parts of acetate buffer, 1 part of TPTZ solution, and 1 part of FeCl3 × 6H2O solution. A portion of 180 μL of the FRAP solution was mixed with 20 μL of the tested compound solution and incubated at room temperature for 10 min in the dark. Readings of the color product (ferrous tripyridyl triazine complex) were then taken at 593 nm against ethanol. Results are expressed as an increase in absorbance of the test sample compared to a sample containing the solvent. L-ascorbic acid was used as reference compound.

The target in data set [3] is T1, human recombinant histamine H3R stably expressed in HEK-293 cells (Homo sapiens, UniProt Q9Y5N1).
T1 construct: HEK-293 cells stably expressing the recombinant full length hH3R; expressed in transfected cells; crude membrane preparations
Put plainly: [3H]Nα-methylhistamine hH3R displacement (radioligand depletion) binding assay. The settings on record: mean [95% confidence interval]. The text has this: Unbound radioligand was removed by three washing steps with ice-cold water.

A further data set addresses hH3R. As to conditions: reference ligands, Figure 1; cited from earlier work.
Setting [4] is: hH3R Ki [nM] x¯ [CI 95%], [3H]Nα-methylhistamine displacement, HEK-293 membranes.
Where [5] appears, read: [3H]Nα-methylhistamine displacement, HEK-293 membranes, read-out: hH3R Ki [nM] x¯ [CI 95%].
[6] abbreviates: hH3R Ki [nM] x¯ [CI 95%], values obtained using 0.025% HCl in binding buffer.

Where “and” joins values, the source holds several entries; their conditions need not be identical. Equal values may be shown once. Read-outs that look alike come from different tables or passages of the source.

T1 sequence (Q9Y5N1 whole entry): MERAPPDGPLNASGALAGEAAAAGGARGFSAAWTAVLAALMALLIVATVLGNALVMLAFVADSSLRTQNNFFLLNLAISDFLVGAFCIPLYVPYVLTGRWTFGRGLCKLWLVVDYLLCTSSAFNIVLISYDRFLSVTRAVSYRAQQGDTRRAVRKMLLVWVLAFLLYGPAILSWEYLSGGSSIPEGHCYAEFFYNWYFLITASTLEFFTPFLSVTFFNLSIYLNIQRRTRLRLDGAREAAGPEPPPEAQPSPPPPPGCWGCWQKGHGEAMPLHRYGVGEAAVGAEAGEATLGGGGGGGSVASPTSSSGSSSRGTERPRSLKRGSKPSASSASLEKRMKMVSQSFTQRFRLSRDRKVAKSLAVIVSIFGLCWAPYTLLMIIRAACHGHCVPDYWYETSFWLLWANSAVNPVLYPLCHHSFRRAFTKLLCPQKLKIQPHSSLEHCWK

As for `O=C1O[C@H]([C@@H](O)CO)C(O)=C1O` [Ascorbic acid, L-ascorbic acid, reference compound], the “DPPH Assay (λ = 517 nm) Absorbance Decrease in 10^−4 mol/L Concentration [%] Mean ± SEM” value in data set [1] was found to be 20.52 ± 0.51%. Moreover, the “FRAP Assay (λ = 593 nm) Absorbance Increase in 10^−4 mol/L Concentration [%] Mean ± SEM” value in data set [2] was 344.20 ± 4.65%.

Consider `CC(=O)N1CCN(CCCOc2ccc(C(=O)c3ccccc3)cc2)CC1.O=C(O)C(=O)O` [Compound 4, 1-(4-(3-(4-Benzoylphenoxy)propyl)piperazin-1-yl)ethan-1-one hydrogen oxalate], for which the melting point (in general, the temperature, or range, at which the solid turns liquid) was 136.8 to 140 °C. The Ki (in general, the equilibrium dissociation constant of an inhibitor or competing ligand from its target) in data set [3] (setting [4]) turned out to be 3650 nM.

Regarding `CC(=O)N1CCN(CCCOc2ccc(C(=O)c3ccc(Cl)cc3)cc2)CC1` [Compound 5, 1-(4-(3-(4-(4-Chlorobenzoyl)phenoxy)propyl)piperazin-1-yl)ethan-1-one], in data set [3] (setting [5]), the Ki amounted to 1260 nM.

Consider `CC(=O)N1CCN(CCCOc2ccc(C(=O)c3ccc(F)cc3)cc2)CC1.O=C(O)C(=O)O` [Compound 6, 1-(4-(3-(4-(4-Fluorobenzoyl)phenoxy)propyl)piperazin-1-yl)ethan-1-one hydrogen oxalate], for which the melting point lay in the range of 171.3 to 173.1 °C. For the same compound, the Ki in data set [3] (setting [4]) was found to be 1100 nM. In addition, the “DPPH Assay (λ = 517 nm) Absorbance Decrease in 10^−4 mol/L Concentration [%] Mean ± SEM” value in data set [1] turned out to be 8.82 ± 0.12%. In addition, in data set [2], the “FRAP Assay (λ = 593 nm) Absorbance Increase in 10^−4 mol/L Concentration [%] Mean ± SEM” value is 0.79 ± 0.39%.

`O=C(O)C(=O)O.O=C(c1ccccc1)c1ccc(OCCCN2CCN(C(=O)C3CC3)CC2)cc1` [Compound 7, (4-(3-(4-Benzoylphenoxy)propyl)piperazin-1-yl)(cyclopropyl)methanone hydrogen oxalate]: the melting point fell in the range of 167.3 to 168.6 °C. Moreover, the Ki in data set [3] (setting [4]) was 1330 nM. Moreover, the “DPPH Assay (λ = 517 nm) Absorbance Decrease in 10^−4 mol/L Concentration [%] Mean ± SEM” value in data set [1] amounted to 6.23 ± 0.53%. Further, in data set [2], the “FRAP Assay (λ = 593 nm) Absorbance Increase in 10^−4 mol/L Concentration [%] Mean ± SEM” value stood at 1.43 ± 0.32%.

In turn, `O=C(O)C(=O)O.O=C(c1ccc(Cl)cc1)c1ccc(OCCCN2CCN(C(=O)C3CC3)CC2)cc1` [Compound 8, (4-(3-(4-(4-Chlorobenzoyl)phenoxy)propyl)piperazin-1-yl)(cyclopropyl)methanone hydrogen oxalate] registered a melting point of 176.9 to 179.2 °C. The Ki in data set [3] (setting [4]) is greater than 1000 nM. Moreover, in data set [1], the “DPPH Assay (λ = 517 nm) Absorbance Decrease in 10^−4 mol/L Concentration [%] Mean ± SEM” value is 6.79 ± 0.51%. The “FRAP Assay (λ = 593 nm) Absorbance Increase in 10^−4 mol/L Concentration [%] Mean ± SEM” value in data set [2] is 0.48 ± 0.48%.

In turn, `O=C(O)C(=O)O.O=C(c1ccc(F)cc1)c1ccc(OCCCN2CCN(C(=O)C3CC3)CC2)cc1` [Compound 9, (4-(3-(4-(Cyclopropanecarbonyl)piperazin-1-yl)propoxy)phenyl)(4-fluorophenyl)methanone hydrogen oxalate] showed a melting point of 181.1 to 182.7 °C. For the same compound, the Ki in data set [3] (setting [4]) turned out to be 1670 nM. The “DPPH Assay (λ = 517 nm) Absorbance Decrease in 10^−4 mol/L Concentration [%] Mean ± SEM” value in data set [1] amounted to 7.70 ± 0.41%. Moreover, the “FRAP Assay (λ = 593 nm) Absorbance Increase in 10^−4 mol/L Concentration [%] Mean ± SEM” value in data set [2] amounted to 1.75 ± 0.22%.

Regarding `CC(=O)c1ccc(N2CCN(CCCOc3ccc(C(=O)c4ccccc4)cc3)CC2)cc1` [Compound 10, 1-(4-(4-(3-(4-Benzoylphenoxy)propyl)piperazin-1-yl)phenyl)ethan-1-one], the melting point was 148.4 to 151.4 °C. The Ki in data set [3] (setting [5]) is 633 nM. Besides, the “DPPH Assay (λ = 517 nm) Absorbance Decrease in 10^−4 mol/L Concentration [%] Mean ± SEM” value in data set [1] amounted to 2.44 ± 0.97%. The “FRAP Assay (λ = 593 nm) Absorbance Increase in 10^−4 mol/L Concentration [%] Mean ± SEM” value in data set [2] is on record as 3.66 ± 0.59%.

In the case of `CC(=O)c1ccc(N2CCN(CCCOc3ccc(C(=O)c4ccc(Cl)cc4)cc3)CC2)cc1` [Compound 11, 1-(4-(4-(3-(4-(4-Chlorobenzoyl)phenoxy)propyl)piperazin-1-yl)phenyl)ethan-1-one], the melting point fell in the range of 180.6 to 183.4 °C. Besides, the Ki in data set [3] (setting [5]) was greater than 1000 nM. In addition, in data set [1], the “DPPH Assay (λ = 517 nm) Absorbance Decrease in 10^−4 mol/L Concentration [%] Mean ± SEM” value was found to be 3.33 ± 0.45%. The “FRAP Assay (λ = 593 nm) Absorbance Increase in 10^−4 mol/L Concentration [%] Mean ± SEM” value in data set [2] is on record as 3.34 ± 0.22%.

Turning to `CC(=O)c1ccc(N2CCN(CCCOc3ccc(C(=O)c4ccc(F)cc4)cc3)CC2)cc1` [Compound 12, 1-(4-(4-(3-(4-(4-Fluorobenzoyl)phenoxy)propyl)piperazin-1-yl)phenyl)ethan-1-one], the melting point lay within 162 to 163.6 °C. The Ki in data set [3] (setting [5]) came out at 1010 nM. For the same compound, the “DPPH Assay (λ = 517 nm) Absorbance Decrease in 10^−4 mol/L Concentration [%] Mean ± SEM” value in data set [1] is reported as 4.42 ± 0.33%. Besides, the “FRAP Assay (λ = 593 nm) Absorbance Increase in 10^−4 mol/L Concentration [%] Mean ± SEM” value in data set [2] is 2.70 ± 1.15%.

The compound `O=C(c1ccccc1)c1ccc(OCCCN2CCN(c3ccc([N+](=O)[O-])cc3)CC2)cc1` [Compound 13, (4-(3-(4-(4-Nitrophenyl)piperazin-1-yl)propoxy)phenyl)(phenyl)methanone] had a melting point of 182.3 to 183.9 °C. Also, the Ki in data set [3] (setting [5]) is greater than 1000 nM.

The compound `O=C(c1ccc(Cl)cc1)c1ccc(OCCCN2CCN(c3ccc([N+](=O)[O-])cc3)CC2)cc1` [Compound 14, (4-Chlorophenyl)(4-(3-(4-(4-nitrophenyl)piperazin-1-yl)propoxy)phenyl)methanone] displayed a melting point of 154.5 to 155.8 °C. The Ki in data set [3] (setting [5]) was 622 nM. Moreover, the “DPPH Assay (λ = 517 nm) Absorbance Decrease in 10^−4 mol/L Concentration [%] Mean ± SEM” value in data set [1] is given as 6.31 ± 1.14%. In addition, in data set [2], the “FRAP Assay (λ = 593 nm) Absorbance Increase in 10^−4 mol/L Concentration [%] Mean ± SEM” value is given as 0.22 ± 0.16%.

`O=C(c1ccc(F)cc1)c1ccc(OCCCN2CCN(c3ccc([N+](=O)[O-])cc3)CC2)cc1` [Compound 15, (4-Fluorophenyl)(4-(3-(4-(4-nitrophenyl)piperazin-1-yl)propoxy)phenyl)methanone] displayed a melting point of 173.3 to 174.2 °C. Moreover, the Ki in data set [3] (setting [5]) turned out to be 580 nM.

`COc1cccc(N2CCN(CCCOc3ccc(C(=O)c4ccccc4)cc3)CC2)c1.O=C(O)C(=O)O` [Compound 16, (4-(3-(4-(3-Methoxyphenyl)piperazin-1-yl)propoxy)phenyl)(phenyl)methanone hydrogen oxalate] yielded a melting point of 143.6 to 146.1 °C. In data set [3] (setting [6]), the Ki amounted to 592 nM. Besides, in data set [1], the “DPPH Assay (λ = 517 nm) Absorbance Decrease in 10^−4 mol/L Concentration [%] Mean ± SEM” value is 12.37 ± 1.31%. For the same compound, the “DPPH assay: % of ascorbic acid activity” value in data set [1] (compound 10^−4 mol/L vs ascorbic acid 10^−4 mol/L, calculated from Table 2) is 60.28% and 50–60%. Also, the “FRAP Assay (λ = 593 nm) Absorbance Increase in 10^−4 mol/L Concentration [%] Mean ± SEM” value in data set [2] is reported as 32.91 ± 0.81%.

Compound `COc1cccc(N2CCN(CCCOc3ccc(C(=O)c4ccc(Cl)cc4)cc3)CC2)c1.O=C(O)C(=O)O` [Compound 17, (4-Chlorophenyl)(4-(3-(4-(3-methoxyphenyl)piperazin-1-yl)propoxy)phenyl)methanone hydrogen oxalate] returned a melting point of 100.2 to 102.4 °C. Besides, in data set [3] (setting [6]), the Ki was 518 nM and ~500 nM. Moreover, the “DPPH Assay (λ = 517 nm) Absorbance Decrease in 10^−4 mol/L Concentration [%] Mean ± SEM” value in data set [1] came to 4.88 ± 0.18%. Further, in data set [2], the “FRAP Assay (λ = 593 nm) Absorbance Increase in 10^−4 mol/L Concentration [%] Mean ± SEM” value came to 40.86 ± 0.98%.

In the case of `COc1cccc(N2CCN(CCCOc3ccc(C(=O)c4ccc(F)cc4)cc3)CC2)c1.O=C(O)C(=O)O` [Compound 18, (4-Fluorophenyl)(4-(3-(4-(3-methoxyphenyl)piperazin-1-yl)propoxy)phenyl)methanone hydrogen oxalate], the melting point was 127.4 to 129.7 °C. The Ki in data set [3] (setting [4]) came out at 715 nM. For the same compound, in data set [1], the “DPPH Assay (λ = 517 nm) Absorbance Decrease in 10^−4 mol/L Concentration [%] Mean ± SEM” value amounted to 6.35 ± 0.55%. For the same compound, the “FRAP Assay (λ = 593 nm) Absorbance Increase in 10^−4 mol/L Concentration [%] Mean ± SEM” value in data set [2] worked out at 29.73 ± 0.39%.

Turning to `Cn1nc(N2CCC(OC(=O)N3CCN(C4CCC4)CC3)CC2)ccc1=O` [LML134], the Ki on hH3R was 12 nM.

These data come from article PMC8071534, “Discovery of Potential, Dual-Active Histamine H3 Receptor Ligands with Combined Antioxidant Properties” (Molecules, 2021).
